PMC10700139 (Nature, 2023)
Several values for one entry are separate records, joined by “and”; a condition that tells them apart may be missing. Identical values can stand only once.

Legend:
[1] = Stability of isolated 9 in deuterated solvents (1H NMR, LC-MS); type: physicochemical; settings: resuspended in CDCl3 or CD3OD, 1H NMR over time
Description: Also, on drying of our sample from CDCl3, we noted a colour change from yellow/brown to red. Loss of our compound was confirmed through LC–MS analysis. However, we observed that during the course of purification, a compound pertaining to an oxidation of 9 ([…]; equal to 9 + oxygen) accumulated to high concentrations. […] As such, we purified this compound using the same strategy outlined above (yield of about 3 mg) and determined a putative structure (proposed 9′) through NMR analysis. For 9′, deuterated ACN (CD3CN) was used as a solvent and spectra were collected on a Varian Inova 600 MHz NMR spectrometer at room temperature (Supplementary Figs. 12–18).

PtCAL-1a/PtCAL-2a = molecular target: T1, PtCAL-1a/PtCAL-2a (Phlegmariurus tetrastichus, UniProt P0DXL1+P0DXL3); assay: In vitro reactions with apoplastic PtCAL-1a/PtCAL-2a (formation of 9, decarboxylation of 3, Zn chelator); type: biochemical
T1 construct: N-terminal signal peptide[58], which would be cleaved during processing and trafficking of these proteins; made in house; host or cells: Nicotiana benthamiana leaves (Agrobacterium transient co-expression, pEAQ-HT), concentrated apoplast extract
T1 sequence (P0DXL1 22-280): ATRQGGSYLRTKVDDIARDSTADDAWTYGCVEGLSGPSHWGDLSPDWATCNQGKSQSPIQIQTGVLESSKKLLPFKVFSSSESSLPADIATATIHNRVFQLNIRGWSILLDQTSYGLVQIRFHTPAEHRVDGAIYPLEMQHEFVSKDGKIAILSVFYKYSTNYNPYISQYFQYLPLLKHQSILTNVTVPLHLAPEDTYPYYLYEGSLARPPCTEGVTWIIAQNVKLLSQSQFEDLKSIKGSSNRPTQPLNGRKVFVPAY
T1 sequence (P0DXL3 24-284): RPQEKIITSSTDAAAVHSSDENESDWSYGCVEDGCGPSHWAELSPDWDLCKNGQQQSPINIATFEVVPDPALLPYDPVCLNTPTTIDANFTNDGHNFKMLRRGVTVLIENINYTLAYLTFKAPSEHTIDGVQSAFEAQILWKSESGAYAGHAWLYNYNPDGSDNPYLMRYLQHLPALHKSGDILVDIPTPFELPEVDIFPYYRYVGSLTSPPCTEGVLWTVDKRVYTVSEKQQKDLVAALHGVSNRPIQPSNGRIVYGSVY
Excerpt: The three CAL proteins identified in this study have predicted N-terminal signal peptides, which were identified using the TargetP-2.0 server (https://services.healthtech.dtu.dk/service.php?TargetP-2.0)[58]. […] To assess this possibility, CAL genes with or without C-terminal 6xHis tags were transiently expressed in N. benthamiana, as described above. Each CAL gene was expressed individually; also, PtCAL-1a and PtCAL-2a were transiently co-expressed in the same leaf because we had found them to cofunction in Lycopodium alkaloid biosynthesis. At 4 days after Agrobacterium infiltration, apoplast protein extracts were isolated using the infiltration–centrifugation method, much as previously described. Two leaves per reaction were excised from the plant and submerged in ice-cold apoplast extraction buffer (100 mM MES, 300 mM NaCl, pH 5.5) in an open-capped 50 ml Falcon tube and these tubes were placed in a plastic vacuum chamber attached to a Welch Model 2025 vacuum pump. The chamber was brought down to full vacuum and after 2 min at this pressure, the vacuum was slowly released to allow for buffer to infiltrate the leaf apoplastic space. Buffer-infiltrated leaves were carefully removed from the Falcon tubes, blotted dry with paper towels and were then rolled into Parafilm and placed in a plungerless 5 ml plastic syringe. The syringe was placed in a 15 ml Falcon tube and this was then centrifuged at 1,000g and 4 °C for 10 min to collect apoplast extract. The resulting extract was centrifuged at 10,000g and 4 °C for 15 min to pellet any larger cellular debris and the supernatant was concentrated using an Amicon Ultra-4 Centrifugal Filter Unit (10 kDA MWCO, MilliporeSigma UFC501024). Protein concentrations were measured using the BIO-RAD Protein Assay or Bradford assay (Abcam 119216) and adjusted with apoplast extraction buffer to a final concentration between 0.5 and 1.5 mg ml^−1. Aliquots of the extracts were snap frozen in liquid nitrogen and stored at −80 °C.
Reactions with CAL-enriched apoplast were routinely performed in low-pH potassium phosphate buffer (50 mM potassium phosphate, 100 mM NaCl, pH 5.9) at a volume of 20 µl. For PtCAL-1a/PtCAL-2a, these reactions contained approximately 1.4 µg of apoplast protein for each CAL (final concentration of 0.07 µg µl^−1). Control reactions used apoplast from leaves expressing only one CAL or with apoplast generated from GFP-expression N. benthamiana leaves. The requisite substrates for this reaction were generated through the activities of in vitro PtPIKS-1 and PtCYP782C1 enzyme reactions. […]. To generate 3 and 4 as potential substrates, 1 µg of previously purified PtPIKS-1 enzyme[23] and 150 µM 1 and 300 µM malonyl-CoA were added directly to the CAL reaction mixtures. After thorough mixing, reactions were incubated at room temperature. An alternative route for producing 3 and 4 independently of thioester intermediates was achieved by mixing stocks of 1 (10 mM in water) and 2 (10 mM in water; always prepared fresh to minimize compound decomposition) in equal proportion, followed by incubation at room temp for 1–2 h, as these two substrates can non-enzymatically condense to yield 3 (which can spontaneously decarboxylate to produce 4). A 2 µl aliquot of this mixture was then added as a component of the PtCAL-1a/PtCAL-2a enzyme reaction (20 µl total reaction volume) in addition to the PtCYP782C1 microsomal reaction mixture. After predesignated incubation times, reactions were quenched by diluting tenfold into ACN with 0.1% formic acid.
To evaluate the potential decarboxylation of β-keto acid substrates by PtCAL-1/PtCAL-2 and PtCAL-3, only 3 or 2, respectively, were added as substrate. PtCAL-1/PtCAL-2 reactions were quenched by diluting aliquots tenfold into ACN with 0.1% formic acid and were subsequently analysed through HILIC LC–MS. PtCAL-3 reactions were quenched by mixing aliquots with an equal volume of water with 0.2% formic acid and were then analysed through C18 LC–MS. […]

CC1CC2=NCCCC2=C(CC2CCCCN2)C1 (centres unmarked) [compound 9]
stability of isolated compound [1]: relatively unstable
ion abundance of 9 (m/z 164.1434) over time (PtCAL-1a/PtCAL-2a; PtCAL-1a/PtCAL-2a +3, +8, +PDCA, +Zn, 0.5 hrs (ED 4i)): 127782 and 135642 and 127803
ion abundance of 9 (m/z 164.1434) over time (PtCAL-1a/PtCAL-2a; PtCAL-1a/PtCAL-2a +3, +8, +PDCA, +Zn, 2 hrs (ED 4i)): 473171 and 458012 and 448492
ion abundance of 9 (m/z 164.1434) over time (PtCAL-1a/PtCAL-2a; PtCAL-1a/PtCAL-2a +3, +8, +PDCA, +Zn, 6 hrs (ED 4i)): 1066834 and 1174532 and 1104641
ion abundance of 9 (m/z 164.1434) over time (PtCAL-1a/PtCAL-2a; PtCAL-1a/PtCAL-2a +3, +8, +PDCA, +Zn, 24 hrs (ED 4i)): 1783309 and 1828274 and 1979732
ion abundance of 9 (m/z 164.1434) over time (PtCAL-1a/PtCAL-2a; PtCAL-1a/PtCAL-2a +3, +8, +PDCA, 0.5 hrs (ED 4i)): 126896 and 128709 and 118410
ion abundance of 9 (m/z 164.1434) over time (PtCAL-1a/PtCAL-2a; PtCAL-1a/PtCAL-2a +3, +8, +PDCA, 2 hrs (ED 4i)): 460080 and 448051 and 514634
ion abundance of 9 (m/z 164.1434) over time (PtCAL-1a/PtCAL-2a; PtCAL-1a/PtCAL-2a +3, +8, +PDCA, 6 hrs (ED 4i)): 1133647 and 1079904 and 1109219
ion abundance of 9 (m/z 164.1434) over time (PtCAL-1a/PtCAL-2a; PtCAL-1a/PtCAL-2a +3, +8, +PDCA, 24 hrs (ED 4i)): 1692906 and 1937168 and 1863327
ion abundance of 9 (m/z 164.1434) over time (PtCAL-1a/PtCAL-2a; PtCAL-1a/PtCAL-2a +3, +8, 0.17 hrs): 5042 and 4513 and 5355
ion abundance of 9 (m/z 164.1434) over time (PtCAL-1a/PtCAL-2a; PtCAL-1a/PtCAL-2a +3, +8, 0.5 hrs (ED 4i)): 123276 and 137673 and 112913
ion abundance of 9 (m/z 164.1434) over time (PtCAL-1a/PtCAL-2a; PtCAL-1a/PtCAL-2a +3, +8, 2 hrs (ED 4i)): 446630 and 485400 and 412047
ion abundance of 9 (m/z 164.1434) over time (PtCAL-1a/PtCAL-2a; PtCAL-1a/PtCAL-2a +3, +8, 6 hrs (ED 4i)): 1143938 and 1142219 and 1013243
ion abundance of 9 (m/z 164.1434) over time (PtCAL-1a/PtCAL-2a; PtCAL-1a/PtCAL-2a +3, +8, 8.00 hrs): 777915 and 631565 and 1080330
ion abundance of 9 (m/z 164.1434) over time (PtCAL-1a/PtCAL-2a; PtCAL-1a/PtCAL-2a +3, +8, 20.00 hrs): 2280194 and 1799167 and 2350932
ion abundance of 9 (m/z 164.1434) over time (PtCAL-1a/PtCAL-2a; PtCAL-1a/PtCAL-2a +3, +8, 24.00 hrs): 2573277 and 1958546 and 2242168
ion abundance of 9 (m/z 164.1434) over time (PtCAL-1a/PtCAL-2a; PtCAL-1a/PtCAL-2a +3, +8, 24 hrs (ED 4i)): 1814580 and 1825623 and 1787378
ion abundance of 9 (m/z 164.1434) over time (PtCAL-1a/PtCAL-2a; PtCAL-1a/PtCAL-2a +3, +8, +PtCAL-3, 0.17 hrs): 8935 and 8139 and 7454
ion abundance of 9 (m/z 164.1434) over time (PtCAL-1a/PtCAL-2a; PtCAL-1a/PtCAL-2a +3, +8, +PtCAL-3, 0.50 hrs): 15312 and 11348 and 14678
ion abundance of 9 (m/z 164.1434) over time (PtCAL-1a/PtCAL-2a; PtCAL-1a/PtCAL-2a +3, +8, +PtCAL-3, 2.00 hrs): 132103 and 73247 and 110763
ion abundance of 9 (m/z 164.1434) over time (PtCAL-1a/PtCAL-2a; PtCAL-1a/PtCAL-2a +3, +8, +PtCAL-3, 4.00 hrs): 477805 and 480278 and 470081
ion abundance of 9 (m/z 164.1434) over time (PtCAL-1a/PtCAL-2a; PtCAL-1a/PtCAL-2a +3, +8, +PtCAL-3, 8.00 hrs): 1471863 and 934058 and 1569447
ion abundance of 9 (m/z 164.1434) over time (PtCAL-1a/PtCAL-2a; PtCAL-1a/PtCAL-2a +3, +8, +PtCAL-3, 24.00 hrs): 2382612 and 1957618 and 2845113
